Measured values published in US20230381173A1, “METHODS AND PHARMACEUTICAL COMPOSITION FOR TREATING DISEASES” (TONGLI BIOMEDICAL CO. LTD., priority 2021, published 2023).

How the values were obtained:
[1] = system: Dactylogyrus vastator; assay: Bath treatment of Dactylogyrus infected goldfish; assay type: in vivo, goldfish (Carassius auratus); settings: bath 1.5 mg/L, 48 hours
Method: (R)-praziquantel Form B was tested for use in treating fish parasites. Specifically, the effect of bath treatment of monogenean Dactylogyrus infected goldfish (Carassius auratus) was investigated. […] Two days after treatment, the number of attached parasites in whole gills of each fish was counted. Reduction rate=(average survival of worms in the blank control group−average survival of worms in the administration group)/average survival of worms in the blank control group×100%.

[2] = system: Neobenedenia melleni; assay: Antiparasitic activity of medicated feed in infected yellow croaker; assay type: in vivo, large yellow croaker (Larimichthys crocea); settings: for Infectivity: Day 3
Excerpt: The purpose of this experiment was to evaluate palatability and efficacy of (R)-praziquantel Form B (R-PZQ) against Monogenean trematode infection (Neobenedenia melleni) in large yellow croaker (Larimichthys crocea). Praziquantel (PZQ) was used as a positive control.
All experimental yellow croakers (about 50-75 g BW/fish) were infected with Neobenedenia melleni, and the average infection intensity was 100-120 parasites/fish.
Fish were fed 2 times a day (morning and afternoon) at up to 4% BW per day. The medicated granular feed was prepared as descripted under section “LIQUID COMPOSITIONS AND SOLID FORMULATIONS CONTAINING (R)-PRAZIQUANTEL FORM B FOR AQUACULTURE AND FISH”. Briefly, the powders of (R)-praziquantel Form B ([…]) or praziquantel (PZQ) were mixed with 4% (v/v) squid oil. The resulting squid oil was subsequently top-dressed onto commercial feed granules. Control feed was prepared by top-dressing with 4% squid oil onto the feed granules without containing the compounds.
During treatment, amount and time to consume the medicated (or control) feed by the fishes in each group were observed and scored for palatability as poor (+) to excellent (+++++). Two days after dosing (Day 3), each fish was soaked in water individually and the number of parasites was recorded separately.

[3] = Accelerated solid state stability of anhydrate (Form B) and hemihydrate (R)-praziquantel, open and closed condition; assay type: physicochemical
Method: The Accelerated Solid State Stability of the Anhydrate (Form B) and Hemihydrate (R)-Praziquantel in an Open and Closed Condition […] The accelerated solid-state stability of the anhydrate and hemihydrate (R)-praziquantel was determined by storing approximately 1.0 g of the material in a glass dish at a) the anhydrate at 45° C./75% (RH), closed, for 3 months. and b) 45° C./75% Relative Humidity (RH), open exposure condition, for 3 months. The material was assayed by KF, TGA and HPLC for final content and degradation products.

[4] = Physicochemical characterization of Form B (hygroscopicity)
[5] = highest concentration of 10 mg/L
Method: Goldfish were acclimatized to 22° C. water (pH 7˜7.5, dissolved oxygen>5 mL/L) and were challenged with Dactylogyrus vastator. When infection rate and infection intensity reached 100% and over 10 parasite/whole gills of each fish within about 10 days, the fish were then treated with various concentrations of the (R)-praziquantel Form B or praziquantel for 48 hours by bath. Infected fish […] were used as a control group. 20 infected fish were placed per concentration for each treatment.

[6] = Long-term stability of (R)-praziquantel Form B API; assay type: physicochemical; settings: for Appearance / Assay(Anhydrous basis) / Chiral Purity / Purity / Related Substances, largest single impurity (RRT = 0.60) / Related Substances, total impurities / XRPD Characterization / Water Content: 25° C., 60% relative humidity; for Water Content: Karl Fischer
Method: Accurately weigh about 0.1-0.5 g of sample of Form B and transfer it to KF titrator container (aldehyde ketone Volumetric method), measure the samples according to USP<921>. The active pharmaceutical ingredient (API) of Form B was stored for 18 months under different storage conditions: 25° C. and 60% relative humidity, 30° C. and 65% relative humidity, and 40° C. and 75% relative humidity, in a sealed and open condition. […] In some embodiments, under various storage conditions the anhydrous API provided herein can be stable and water content controlled under 0.5% and monitored by KF for at least, or at least about, 3 months, 6 months, 9 months, 12 months, 18 months, 24 months and 36 months. For example, under storage conditions of 25° C. and 60% relative humidity, the tablets and API provided herein can be stable for at least, or at least about, 3 months, 6 months, 9 months, 12 months and 18 months.

[7] = at the same dose level; cited from earlier work
[8] = rabbit, in vivo; cited from earlier work
[9] = system: isolated rat atria; settings: cited from earlier work
[10] = cited from earlier work
[11] = medicated feed 75 mg/kg × 2 days
[12] = medicated feed 37 mg/kg × 2 days
[13] = Closed condition, 45° C./75% RH, 3 months
[14] = Open, 45° C., RH75%, T3 (3 months)
[15] = Opened condition, 45° C./75% RH, 3 months
[16] = Sealed, 45° C., RH75%, T3 (3 months)

## O=C(C1CCCCC1)N1CC(=O)N2CCc3ccccc3C2C1 (racemic) [Praziquantel, reference compound]
[1]
  Infection rate: 100%
  Worm reduction: 45%
[2]; [11]
  Mortality: 3%
  Infectivity: 54%

## O=C(C1CCCCC1)N1CC(=O)N2CCc3ccccc3[C@@H]2C1 [(R)-praziquantel Form B, (R)-2-(cyclohexanecarbonyl)-2,3,6,7-tetrahydro-1H-pyrazino[2,1-a] isoquinolin-4(11bH)-one]
[1]
  Infection rate: 100%
  Worm reduction: 98%
[2]; [12]
  Mortality: 0%
  Infectivity: 35%
[2]; [11]
  Mortality: 0%
  Infectivity: 6%
[2]; oral treatment
  Antiparasitic efficacy: dose dependent and superior to PZQ
[3]; [13]
  Degradation (HPLC): no significant degradation observed
  Water uptake (KF): ≤ 0.3%
[3]; Open, 45° C., RH75%, T0, listed as Anhydrate
  Water content (KF): 1.30%
[3]; Open, 45° C., RH75%, T0, listed as anhydrate
  Water content (KF): 1.3%
[3]; [14]
  Impurities by HPLC, RRT 0.6: RRT 0.6: 0.04%
[3]; Open, 45° C., RH75%, T3 (3 months), listed as Anhydrate
  Water content (KF): 2.50%
[3]; Open, 45° C., RH75%, T3 (3 months), listed as anhydrate
  Water content (KF): about 2.5%
[3]; [15]
  Degradation (HPLC): no significant degradation observed
  Impurity peaks found (HPLC): none of impurity peak found
[3]; Sealed, 45° C., RH75%, T0
  Water content (KF): 0.24%
[3]; [16]
  Impurities by HPLC, RRT 0.6: RRT 0.6: 0.04%
  Water content (KF): 0.32%
[4]
  Hygroscopicity: slightly hygroscopic
[5]
  Toxic effect in the treated fish: no toxic effect
[6]; 18 months, 25° C./60% RH, 30° C./65% RH, 40° C./75% RH, sealed and open
  Storage stability of API: good stability
[6]; 18 M
  Appearance: White solid
  Assay(Anhydrous basis): 101.00%
  Chiral Purity: 100.00%
  Purity: 99.90%
  Related Substances, largest single impurity (RRT = 0.60): RRT = 0.60: 0.03%
  Related Substances, total impurities: 0.11%
  XRPD Characterization: Conforms
  Water Content: 0.27%
[6]; Initial (0 M)
  Appearance: White solid
  Assay(Anhydrous basis): 99.80%
  Chiral Purity: 100.00%
  Purity: 99.90%
  Related Substances, largest single impurity (RRT = 0.60): RRT = 0.60: 0.04%
  Related Substances, total impurities: 0.10%
  XRPD Characterization: Conforms
  Water Content: 0.50%

## O=C(C1CCCCC1)N1CC(=O)N2CCc3ccccc3[C@@H]2C1 [(R)-praziquantel]
[7]
  Anthelmintic efficacy: better than that of praziquantel
[8]
  Cardiac toxicity: lower cardiac toxicity than (S)-praziquantel
[9]
  Cardiac toxicity: lower cardiac toxicity than (S)-praziquantel
[10]; after oral administration (drowsiness, gastric nausea or photosensitivity rash)
  Observed side effects: relatively mild
[10]; after oral administration
  Serious adverse reactions: No serious adverse reactions

## O=C(C1CCCCC1)N1CC(=O)N2CCc3ccccc3[C@H]2C1 [(S)-praziquantel, reference compound]
[7]
  Anthelmintic efficacy: almost no activity

## O.O=C(C1CCCCC1)N1CC(=O)N2CCc3ccccc3[C@@H]2C1.O=C(C1CCCCC1)N1CC(=O)N2CCc3ccccc3[C@@H]2C1 [Hemihydrate, reference compound]
[3]; Open, 45° C., RH75%, T0
  Water content (KF): 2.80%
[3]; [14]
  Impurities by HPLC, RRT 0.6: RRT0.6: 0.17%,
  Impurities by HPLC, RRT 0.9: RRT0.9: 0.13%
  Water content (KF): 2.50%
[3]; [15]
  Impurity peaks found (HPLC): two
  Percent total impurities: exceed 0.3%
